Test [1] has as its system A375 (ITKINT) melanoma cell line. Put plainly: proliferation assay (cell counts). The test is classed as cell-based, Human. The settings on record: 50 nM. As for the experimental part: (§1) FIG. 5A-5C. Effects of BI 10N inhibitor on proliferation and motility of melanoma cells. FIG. 5A) Cell motility assays were performed as described in FIG. 4A-4E; however, the inhibitor BI 10N was added to the media to decrease ITK kinase activity in parental cell lines instead of using the shRNA ITK knockdown cell lines. BI 10N was added to the media 24 hours prior to the start of the motility assay and the VivaView camera system was used to image cellular motility of the melanoma cells as described previously. FIG. 5B) The proliferation assays were completed as described in FIG. 4A-4E, substituting the BI 10N compound for the shRNA. Cells were trypsinized and counted using the Invitrogen Countess. Fifty thousand cells were placed into each well of a 6 well plate and BI 10N was added to the indicated concentrations. The cells were counted with the Invitrogen Countess at 3, 5, and 6 or 7 days after plating to assess the proliferation rates of the different cell lines in the presence of BI 10N. FIG. 5C) Both ITKHI (RPMI 8322) and ITKLO (PMWK) melanoma cell lines were grown in the presence of BI 10N (10-200 nM) in soft agar. In 24-well cell culture plates 2,500 cells per well were added to a 1.4% agarose solution. The agarose and cell solution was then poured on top of a solidified base agar. The cells were incubated at 37° C. for three to four weeks to ensure adequate growth before analysis. FIG. 5D) Cell cycle analysis of PMWK, VMM 39, and RPMI 8322 cells that have been treated with increasing concentrations of BI 10N. Following 3 days of BI 10N treatment, the cells were incubated with EdU for 3 hours and were subsequently assessed for 5-ethynyl-2′-deoxyuridine (EdU) incorporation rate and DNA content with FxCycle Violet. […]
(§2) Human melanoma cell lines were plated onto 10 cm^2 6 well dishes at a density of 50,000 cells per well. […] Five hundred […] of media was added to the cell suspension, the cells were removed from the well and then counted using the Countess® Automated Cell Counter from Life Technologies (cat #C10227). […]

Test [2] deals with SKMEL 131 (ITKLO) melanoma cell line. Put plainly: proliferation assay (cell counts). The settings on record: inhibitor as high as 150 nM. The test is classed as cell-based, Human. The procedure: as §1, §2
Test [3] deals with SKMEL 153 (ITKHI) melanoma cell line. Put plainly: proliferation assay (cell counts). The settings on record: 50 nM. Format: cell-based, Human. The procedure:
as §1, §2

Test [4] addresses T1, phosphorylated (active) form of ITK in RPMI 8322 cells (Homo sapiens, UniProt Q08881).
T1 construct: endogenous in cells; host or cells: RPMI 8322 human melanoma cells
As to the kind of experiment: two-dimensional electrophoresis and western blot of ITK isoforms. Format: cell-based. The settings on record: RPMI 8322 cells treated for 3 days. The text has this: Therefore, alternatively, we performed two-dimensional electrophoresis on whole cell lysates obtained from RPMI 8322 cells that had been treated with phosphatase or different concentrations of BI 10N for 3 days prior to harvest followed by western blot analysis using the ITK antibody. In untreated RPMI 8322 cells, two charge isoforms that migrated with the appropriate weight for ITK were identified by immunoblot analysis. […] These observations indicate that the formation of the phosphorylated (active) form of ITK is inhibited in the presence of ≧25 nM of BI 10N (data not shown).

Test [5] deals with ERK and AKT activation status in RPMI 8322 cells. Put plainly: western blot of ERK and AKT activation. The settings on record: concentrations as high as 50 nM, 3 days. The test is classed as cell-based, Human. The procedure: (§3) FIG. 9. Western blots of phospho-ERK and phospho-AKT.
(§4) To investigate the impact of ITK inhibition by BI 10N on the ERK and AKT signaling pathways, which are frequently misregulated in melanoma, the ITKHI melanoma cell lines (VMM 39 and RPMI 8322) were grown in the presence of increasing BI 10N concentrations. Western blot analysis was performed on whole cell lysates from these cells using antibodies against ERK, pERK^Thr202/Tyr204, AKT, and pAKT^Ser473.

In test [6] the test system is ERK and AKT activation status in VMM 39 cells. Put plainly: western blot of ERK and AKT activation. Conditions: concentrations as high as 50 nM, 3 days. Format: cell-based, Human. The procedure: as §3, §4
Test [7] deals with PD-L expression in the melanoma cells. Put plainly: PD-L expression in melanoma cells. The test is classed as cell-based. The text has this: In addition, we report a correlation between PD-L and ITK protein expression and also found a significant correlation between activated Akt and PD-L protein levels (data not shown). […] These observations are consistent with PI3K regulating PD-L expression, Akt or Erk activation and ITK protein levels (Davies, 2012; Jiang and Liu 2008 Biochim Biophys Acta 1784, 150-158; Parsa et al., 2007 Nat Med 13, 84-88)

Test [8] deals with T2, ITK (Homo sapiens, UniProt Q08881).
T2 construct: purchased Carna Biosciences
T2 sequence (Q08881 1-620): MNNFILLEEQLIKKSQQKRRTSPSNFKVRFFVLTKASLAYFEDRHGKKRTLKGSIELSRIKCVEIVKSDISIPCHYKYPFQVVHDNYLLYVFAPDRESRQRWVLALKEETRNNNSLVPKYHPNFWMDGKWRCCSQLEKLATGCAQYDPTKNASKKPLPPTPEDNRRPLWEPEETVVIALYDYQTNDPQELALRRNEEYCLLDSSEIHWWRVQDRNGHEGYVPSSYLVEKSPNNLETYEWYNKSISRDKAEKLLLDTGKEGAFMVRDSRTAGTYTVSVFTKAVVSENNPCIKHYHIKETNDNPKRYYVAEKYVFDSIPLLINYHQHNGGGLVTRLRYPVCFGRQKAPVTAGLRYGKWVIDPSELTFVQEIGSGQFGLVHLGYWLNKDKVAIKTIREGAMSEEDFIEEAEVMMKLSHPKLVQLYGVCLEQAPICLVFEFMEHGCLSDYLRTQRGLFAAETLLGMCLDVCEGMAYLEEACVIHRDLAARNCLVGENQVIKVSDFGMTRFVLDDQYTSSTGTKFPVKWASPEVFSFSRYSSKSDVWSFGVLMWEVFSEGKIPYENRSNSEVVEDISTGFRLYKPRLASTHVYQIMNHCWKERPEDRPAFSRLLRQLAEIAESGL
The settings on record: Riether et al., 2009, cited from earlier work.

We go through one compound from patent US9649313B2, “Use of ITK inhibitors for the treatment of cancer” (The University of North Carolina at Chapel Hill, priority 2012, dated 2017).

SMILES strings stand for the structures. pEC50, pIC50: −log10 of the molar value.

With `CC(C)C(C)CNCc1ccc2c(c1)[nH]/c(=N\C(=O)c1ccc(C3=CN=NC3)s1)n2CC(C)(C)O` (stereo not drawn) [BI 10N], the effect on proliferation entry in test [1] was “decreased similarly to the ITKHI cell lines”. In addition, in test [2], the “effect on doubling time” value is on record as “did not increase their doubling time”. Further, the “increase in doubling time” value in test [3] is “about 50%”. In test [4], the “concentration at which formation of the phosphorylated (active) form of ITK is inhibited” value is not below 25 nM. For the same compound, the “activation status of ERK and AKT” value in test [5] and in test [6] was “No significant effects” in each case. Moreover, in test [7], the “expression of PD-L” value is given as “did not change”. In addition, the pEC50 in test [8] (read-out: EC50 (selective inhibitor of ITK)) is 9.00. Also, the pIC50 in test [8] (read-out: IC50 (inhibit ITK)) was 9.00.
